From article PMC12373846, “Hemoglobin as a pseudoperoxidase and drug target for oxidative stress-related diseases” (Signal Transduction and Targeted Therapy, 2025)
Like-named read-outs stand apart in the source and are kept apart here.

Assays:
[1] = system: CAT; test: ROS-Glo H2O2 assay with CAT; format: biochemical
Description: Hb (Sigma‒Aldrich, H7379), H2O2 (Sigma‒Aldrich, H1009), and Amplex Red reagents (Invitrogen, A12222) were obtained for the study. A 4 μM H2O2 solution was prepared in 50 mM sodium phosphate buffer (pH 7.2). Then, 49 μl of this mixture was mixed with 1 μl of the test compound in DMSO or distilled water. The mixture was combined with an assay mixture of Amplex Red reagent (20 mM stock to 0.1 mM) and HRP (200 U/ml stock to 0.2 U/ml) and added to the wells at 50 μl/well. After a 60-min incubation at 37 °C, resorufin production was quantified via a microplate fluorescence reader (SpectraMax iD5, Molecular Devices) at ex/em = 535/580 nm. The H2O2-decomposing activity was estimated via the following equation: (sample fluorescence-blank fluorescence)/(control […]-blank fluorescence) × 100. For the ROS-Glo assay, the H2O2 substrate solution and ROS-Glo detection solution were prepared according to the manufacturer’s instructions. 10 μM H2O2 and drugs were prepared as in the Amplex Red assay, with HRP, Hb, CAT, or GPx added as needed. […] Luminescence was measured via iD5 microplate readers. The H2O2-decomposing activity was estimated via the following equation: (sample luminescence-blank luminescence)/(control luminescence-blank luminescence) × 100. The U/ml was calculated on the basis of the amount of H2O2 reduced by Hb during the reaction, using μg/ml and U/mg.

[2] = In vivo pharmacokinetics (IV, PO); details: male, ICR, mouse, plasma, mice
Description: In vivo pharmacokinetic studies of KDS12025 were conducted by Medicilon (Shanghai, China). For both intravenous (IV) and oral (PO) administration, the compound was dissolved in a vehicle consisting of 10% Solutol and 90% distilled water. Male ICR mice (n = 4 per group) were fasted overnight and allowed access to food 4 h post-dosing, with water provided ad libitum. Following administration, blood samples (0.03 mL per time point) were collected via the submandibular vein. Samples were transferred to tubes containing sodium heparin and centrifuged at 6,800 x g for 6 min at 2–8 °C. Plasma was separated, transferred to Eppendorf tubes, and internal standard (IS: 10 ng/mL verapamil) was added. After vortexing for 1 min and centrifugation at 18,000 x g for 7 min, the supernatant was analyzed by liquid chromatography–tandem mass spectrometry (LC-MS/MS; TQ5500 Triple Quad, SCIEX). Pharmacokinetic parameters including area under the curve (AUC0–t and AUC0–∞), elimination half-life (t1/2), maximum plasma concentration (Cmax), and time to reach maximum concentration (Tmax) were calculated using noncompartmental analysis in Phoenix WinNonlin 7.0 (Pharsight, USA), an FDA-certified pharmacokinetic software.

[3] = system: aged C57BL/6J mice; test: Survival of aging mice; format: in vivo, mouse
Description: Aged 1-year-old C57BL/6J animals were purchased from Janvier Labs (France) and quarantined in the IBS Animal Facility for 2 weeks before the experiment. The animals were weighed, and their water consumption (in grams) was monitored for 3 days before the appropriate drug concentration was calculated for each dose group. The animals were randomly assigned to the drug/control and dose groups. […] The drug concentration (in water) was modified on the basis of changes in animal weight and corresponding water consumption every 3 months. Basal body temperature and body weight were monitored every 2 weeks. The care and handling of the animals were performed in accordance with the guidelines of the Institutional Animal Care and Use Committee of IBS (Daejeon, South Korea).

[4] = system: aged C57BL/6J mice; test: Open field locomotor activity, aging mice; format: in vivo, mouse; details: 26 month
[5] = system: SOD1^G93A mice; test: Survival and rotarod, SOD1^G93A ALS mice; format: in vivo, mouse; details: 1 and 10 mg/kg/day ad libitum
Description: SOD1^G93A mice (B6SJL-Tg(SOD1*G93A)1Gur/J) were purchased from Jackson Laboratory (strain number 002726) and used in the ALS mouse model. The mice were divided into four groups: Control, SOD1, and KDS12025 (1 and 10 mg/kg/day). Starting at 10 weeks of age, KDS12025 was administered via ad libitum drinking water at doses of 1 mg/kg/day and 10 mg/kg/day. The control and SOD1 groups received standard drinking water. Motor function was evaluated weekly via the rotarod performance test, and the ratio of running time was normalized to that of littermate controls to assess motor coordination and endurance over time. Survival of the mice was monitored for up to 24 weeks, and median survival times were calculated for each group.

[6] = system: GiD mice; test: Novel place recognition test, GiD mice; format: in vivo, mouse; details: GiD+KDS12025 0.1mpk ad libitum, Fig. S11e
[7] = system: mice; test: Laser speckle contrast imaging of cerebral perfusion; format: in vivo, mouse
Description: To assess cerebral perfusion, mice were anesthetized with isoflurane (2-3% in 100% O2, maintained at 1.0%) and placed on a heating pad to maintain body temperature. Following scalp incision, the skull surface was exposed without thinning or craniotomy. LSCI was performed using a laser speckle imaging system (RWD Life Science), acquiring frames at 30 Hz. KDS12025 (0.1, 1, or 10 mg/kg/day) or saline was administered via retro-orbital injection immediately prior to imaging. Cerebral blood perfusion and vessel diameter (pipe diameter) were quantified using RWD’s proprietary LSCI analysis software. All imaging was conducted under identical illumination and acquisition parameters.

Q: Which “effect on CAT activity” value [1] does the source give for O=C(O)c1cc(NCCc2ccc(C(F)(F)F)cc2)ccc1O [HTPEB, 2-hydroxy-5-[2-(4-trifluoromethyl-phenyl)-ethylamino]-benzoic acid, reference compound] here?
A: did not increase

Q: With CNc1ccc(NCCc2ccccc2OC)cc1.Cl [KDS12025, N^1-(2-methoxyphenethyl)-N^4-methylbenzene-1,4-diamine hydrochloride salt] as the compound, how does the bioavailability ([2]; 5 mg/kg IV and 30 mg/kg PO, read-out: F (bioavailability)) read?
A: 87.4%

Q: And the AUC ([2]; 5 mg/kg IV, read-out: AUCall, IV)?
A: 687 ± 118 ng·h/mL

Q: What about the half-life ([2]; 5 mg/kg IV, read-out: t1/2, IV (converted)) of the same compound?
A: 57.6 ± 5.4 min

Q: What about the AUC ([2]; 30 mg/kg PO, read-out: AUCall, PO) of the same compound?
A: 3600 ± 662 ng·h/mL

Q: And the Cmax ([2]; cell spans IV and PO heads, probably 30 mg/kg PO)?
A: 2310 ± 344 ng/mL

Q: What about the “increase of median survival” value ([3]; 0.1 and 1 mg/kg/day ad libitum from 14 months) of the same compound?
A: ~ 14%

Q: What about the “adverse effects during chronic administration” value ([3]; 22-month administration, 0.1 and 1 mg/kg/day) of the same compound?
A: no apparent adverse effects were observed

Q: What about the “female mice surviving at 31 months” value ([3]; KDS12025 groups, when all control mice had died) of the same compound?
A: 46.7%

Q: What about the “distance traveled (Fig. 7d)” value ([4]; 0.1mpk) of the same compound?
A: 3262±203

Q: What about the “locomotor velocity (Fig. 7c)” value ([4]; 0.1mpk) of the same compound?
A: 5.42±0.34

Q: What about the “distance traveled (Fig. 7d)” value ([4]; 1mpk) of the same compound?
A: 3600±561

Q: What about the “locomotor velocity (Fig. 7c)” value ([4]; 1mpk) of the same compound?
A: 6.24±0.6

Q: And the “delay of motor impairment onset” value ([5]; rotarod)?
A: more than 7 weeks

Q: What about the median survival ([5]; untreated 140) of the same compound?
A: 168 days

Q: And the NPR discrimination index [6]?
A: WT (0.2256±0.0275, n=3), GiD (-0.02438±0.07989, n=3), GiD+KDS12025 (0.1mpk) (0.2255±0.02347, n=4) One-way ANOVA with Tukey's multiple comparisons test, F(2,7) = 9.285, p = 0.01 WT vs. GiD, p = 0.02; WT vs. GiD+KDS12025 (0.1mpk), p > 0.99; GiD vs. GiD+KDS12025 (0.1mpk), p = 0.01

Q: What about the “overall cerebral perfusion (LSCI, Fig. S8f)” value (shortened to “overall cerebral perfusion”) ([7]; 0.1 mpk retro-orbital) of the same compound?
A: 1169±10.7

Q: And the “vessel diameter (pipe diameter, Fig. S8g)” value (from here on “vessel diameter”) ([7]; 0.1 mpk retro-orbital)?
A: 193±3.8

Q: What about the “overall cerebral perfusion” value ([7]; 1 mpk retro-orbital) of the same compound?
A: 1205±10.4

Q: And the “vessel diameter” value ([7]; 1 mpk retro-orbital)?
A: 200±2.3

Q: What about the “overall cerebral perfusion” value ([7]; 10 mpk retro-orbital) of the same compound?
A: 1190±7.4

Q: And the “vessel diameter” value ([7]; 10 mpk retro-orbital)?
A: 203±3.9
